Patent US7413876B2 (priority 1990, dated 2008)

Key:
[1] = target: human β2-adrenergic receptor (hβAR) (Homo sapiens, UniProt P07550)
Protocol: After 36 hours, cells were harvested and spheroplasts were prepared as described. […] Briefly, the spheroplasts were resuspended in 50 mM Tris-HCl pH 7.4, 5 mM EDTA and were lysed by vortex mixing with glass beads for three one-min periods at 4° C.
FIG. 2 illustrates hβAR ligand binding to membranes from pYβAR2-transformed yeast cells. […] Specific binding was defined as the amount of total binding (circles) minus nonspecific binding measured in the presence of 10 μM (−) alprenolol (squares).

[2] = test system: 8c cells coexpressing hβAR and rat Gsα; assay: Shmoo formation (morphology) of yeast strain 8c (gpa1) coexpressing hβAR and rat Gsα
Protocol: Colonies were transferred to similar plates containing 0.5 mM ascorbic acid and the indicated adrenergic ligand(s). After 16-20 hours at 30° C., the colonies were transferred to similar liquid media at a density of 10^6-10^7 cells/ml and examined by phase contrast microscopy.

[3] = target: T1, Human β-Adrenergic Receptor (Homo sapiens, UniProt P07550); details: Monkey COS-7 (pBC12: β, BAR); cited from earlier work
T1 construct: expressed in transfected cells; host or cells: monkey COS-7 cells

[4] = test system: pheromone-responsive FUS1 gene promoter; assay: FUS1-lacZ β-galactosidase induction in 8cl (gpal) cells coexpressing hβAR and rat Gsα; assay type: cell-based, yeast
Protocol: To confirm that the pheromone signaling pathway was activated by hβAR and rat Gsα, agonist induction of the pheromone-responsive FUSl gene promoter was measured in a strain of yeast derived from 8c cells (8cl) in which a FUS1-lacZ gene fusion had been stably integrated into the genome.
Strains 8c (FIG. 3, legend) and NNY19 (MATa ura3 leu2 his3 trp1 lys2 FUSl-LacZ::LEU2) were modified by integrative transformation with YIpFUS102 (LEU2), S. Nomoto et al., supra, and designated 8cl and NNY19, respectively. These strains were transformed with pYβAR2 and pYSK136Gαs and maintained on minimal selective plates containing glucose and 50 μM CuSO4. […] See J. Miller, supra.
Agonist stimulation was stereoselective and was blocked by addition of a specific antagonist. Agonist responsiveness was dependent on expression of both hβAR and rat Gsα, and required a strain in which the endogenous G protein α-subunit was disrupted.

(−) epinephrine
Ki [1]: 664 ± 123 nM

C=CCc1ccccc1OCC(O)CNC(C)C (stereo not drawn) [alprenolol]
block of isoproterenol-induced shmoo formation ([2]; 100 μM (−) isoproterenol and 50 μM (−) alprenolol): blocked

CC(C)(C)NC[C@H](O)COc1cccc2[nH]c(C#N)c(I)c12 [125I-CYP, 125I-labeled cyanopindolol]
Kd ([1]; read-out: Kd for 125I-CYP binding, 125I-CYP 5-400 pM, nonspecific binding with 10 μM (−) alprenolol): 0.093 nM

CC(C)(C)NC[C@H](O)COc1cccc2[nH]c(C#N)c([125I])c12 [125I-CYP, 125I-labeled cyanopindolol]
Bmax, maximum ligand bound [3]: 24 pmol/mg
Bmax, maximum ligand bound ([1]; Yeast SC261 (pYβAR2, pMTL9) membranes): 115 pmol/mg
binding of 125I-CYP to membranes ([1]; membranes from pYβAR2-transformed yeast cells): bound in a saturable manner and with high affinity

CC(C)NCC(O)c1ccc(O)c(O)c1 (stereo not drawn) [isoproterenol]
shmoo formation ([2]; 100 μM isoproterenol, 16-20 hours at 30° C., phase contrast microscopy): induced shmoo formation
induction of β-galactosidase activity ([4]; 8cl (gpal) cells, 4 hour incubation at 30° C.): dramatic isoproterenol-stimulated induction
final β-galactosidase activity relative to α-factor in nontransformed NNY19 cells ([4]; transformed 8cl cells vs NNY19 cells expressing GPA1): comparable to that induced by α-factor
